# Source: PubChem BioAssay AID1195 (EPA DSSTox, 2008)
# System: human maximum recommended daily dose, FDA database
# Test: DSSTox (FDAMDD) FDA Maximum (Recommended) Daily Dose Database
# Details: stronger effect = lower value
# How it was run: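 MRDD values come from clinical trials with daily oral dosing, usually for 3–12 months, for the average adult, in mg/day converted to mg/kg-bw/day assuming 60 kg. Antineoplastic mg/m2 doses are divided by 37. Activity score maps log10(1/MRDD mmol) onto 1–100.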
# [1] = TherapeuticCategory: antibacterial
# [2] = TherapeuticCategory: antipsychotic
# [3] = TherapeuticCategory: antiulcerative
# [4] = TherapeuticCategory: antidepressant
# [5] = TherapeuticCategory: antihistaminic
# [6] = TherapeuticCategory: anticholinergic
# [7] = TherapeuticCategory: antimigraine
# [8] = TherapeuticCategory: antineoplastic
# [9] = TherapeuticCategory: sedative, hypnotic
smiles,measurement,setting,value
CN[C@@H]1[C@@H](O)[C@@H](O[C@@H]2[C@@H](O)[C@H](O[C@H]3O[C@H](C(C)N)CC[C@H]3N)[C@@H](N)C[C@H]2N)OC[C@]1(C)O (some centres undefined),maximum recommended daily dose (mmol/kg-bw/day),[1],0.00647
C[C@]12CC[C@@H]3c4ccc(OC(=O)c5ccccc5)cc4CC[C@H]3[C@@H]1CC[C@@H]2O,maximum recommended daily dose (mmol/kg-bw/day),TherapeuticCategory: estrogen,0.00133
CC(=O)c1ccc2c(c1)N(CCCN1CCC(CCO)CC1)c1ccccc1S2,maximum recommended daily dose (mmol/kg-bw/day),[2],0.0065
CC(C)c1cccc(C(C)C)c1O,maximum recommended daily dose (mmol/kg-bw/day),TherapeuticCategory: anesthetic,0.014
O=C(O)Cc1sc(-c2ccccc2)nc1-c1ccc(Cl)cc1,maximum recommended daily dose (mmol/kg-bw/day),TherapeuticCategory: anti inflammatory,0.0455
Clc1ccc(COC(Cn2ccnc2)c2ccc(Cl)cc2Cl)c(Cl)c1 (centres undefined),maximum recommended daily dose (mmol/kg-bw/day),TherapeuticCategory: topical antifungal,0.144
Nc1ccc(S(=O)(=O)c2ccc(N)cc2)cc1,maximum recommended daily dose (mmol/kg-bw/day),"TherapeuticCategory: antibacterial, dermatitis herpetiformis suppressant",0.0201
NC(=O)CC[C@H](N)C(=O)O,maximum recommended daily dose (mmol/kg-bw/day),TherapeuticCategory: none,1.37
CCN(CC)CCOC(=O)C1(c2ccccc2)CCCC1,maximum recommended daily dose (mmol/kg-bw/day),TherapeuticCategory: antitussive,0.0173
Cc1onc(-c2ccccc2)c1C(=O)N[C@@H]1C(=O)N2[C@@H]1SC(C)(C)[C@@H]2C(=O)O,maximum recommended daily dose (mmol/kg-bw/day),[1],0.249
COc1cnc(NS(=O)(=O)c2ccc(N)cc2)nc1,maximum recommended daily dose (mmol/kg-bw/day),[1],0.0892
OC[C@@H](O)[C@@H](O)[C@H](O)[C@@H](O)CO,maximum recommended daily dose (mmol/kg-bw/day),TherapeuticCategory: cathartic,4.57
CCCN(CC)C(CC)C(=O)Nc1c(C)cccc1C (centres undefined),maximum recommended daily dose (mmol/kg-bw/day),TherapeuticCategory: local anesthetic,0.0241
CN1[C@@H](CC(=O)c2ccccc2)CCC[C@H]1C[C@H](O)c1ccccc1,maximum recommended daily dose (mmol/kg-bw/day),TherapeuticCategory: respiratory stimulant,0.000495
O=C(O)CCC(=O)O,maximum recommended daily dose (mmol/kg-bw/day),[3],0.847
O=C(O)c1cccnc1,maximum recommended daily dose (mmol/kg-bw/day),TherapeuticCategory: vitamin,0.102
CC(CN(C)C)CN1c2ccccc2CCc2ccccc21 (centres undefined),maximum recommended daily dose (mmol/kg-bw/day),[4],0.0113
CN(C)CC[C@@H](c1ccc(Br)cc1)c1ccccn1,maximum recommended daily dose (mmol/kg-bw/day),[5],0.00251
CO[C@@]1(NC(=O)Cc2cccs2)C(=O)N2C(C(=O)O)=C(COC(N)=O)CS[C@@H]21,maximum recommended daily dose (mmol/kg-bw/day),[1],0.468
CN1[C@@H]2CC[C@H]1CC(OC(=O)C(CO)c1ccccc1)C2 (some centres undefined),maximum recommended daily dose (mmol/kg-bw/day),"TherapeuticCategory: anticholinergic, mydriatic, antispasmodic",4.6e-06
CCN(CC)CCNC(=O)c1ccc(N)cc1,maximum recommended daily dose (mmol/kg-bw/day),TherapeuticCategory: antiarrhythmic,0.212
CN(C)CCCC1(c2ccc(F)cc2)OCc2cc(C#N)ccc21 (centres undefined),maximum recommended daily dose (mmol/kg-bw/day),[4],0.00308
C[N+]1(C)CCN(CC(O)(c2ccccc2)C2CCCCC2)CC1 (centres undefined),maximum recommended daily dose (mmol/kg-bw/day),[6],0.0039
CC(=O)OCC1=C(C(=O)O)N2C(=O)[C@@H](NC(=O)CSc3ccncc3)[C@H]2SC1,maximum recommended daily dose (mmol/kg-bw/day),[1],0.236
O=C(CCCN1CC=C(n2c(=O)[nH]c3ccccc32)CC1)c1ccc(F)cc1,maximum recommended daily dose (mmol/kg-bw/day),[2],0.000725
O=C(OC1C(OC(=O)c2cccnc2)C(OC(=O)c2cccnc2)C(OC(=O)c2cccnc2)C(OC(=O)c2cccnc2)C1OC(=O)c1cccnc1)c1cccnc1 (centres undefined),maximum recommended daily dose (mmol/kg-bw/day),TherapeuticCategory: vasodilator,0.0823
N[C@@H]1C[C@H]1c1ccccc1,maximum recommended daily dose (mmol/kg-bw/day),[4],0.00751
CO[C@@]1(NC(=O)C(C(=O)O)c2ccc(O)cc2)C(=O)N2C(C(=O)O)=C(CSc3nnnn3C)CO[C@@H]21 (some centres undefined),maximum recommended daily dose (mmol/kg-bw/day),[1],0.128
C=C1CC[C@H](O)C/C1=C/C=C1\CCC[C@]2(C)[C@@H]([C@H](C)CCCC(C)(C)O)CC[C@@H]12,maximum recommended daily dose (mmol/kg-bw/day),TherapeuticCategory: calcium regulator,8.31e-06
CCC1(c2ccccc2)C(=O)NC(=O)NC1=O,maximum recommended daily dose (mmol/kg-bw/day),"TherapeuticCategory: anticonvulsant, sedative, hypnotic",0.0093
O=c1ccc2ccccc2o1,maximum recommended daily dose (mmol/kg-bw/day),TherapeuticCategory: pharmaceutic aid,0.0114
Oc1cc(O)c2c(c1)O[C@H](c1ccc(O)c(O)c1)[C@@H](O)C2,maximum recommended daily dose (mmol/kg-bw/day),"TherapeuticCategory: hepatoprotectant, antidiarrheal",0.115
CNC(C)CCC=C(C)C (centres undefined),maximum recommended daily dose (mmol/kg-bw/day),"TherapeuticCategory: adrenergic, bronchodilator, mydriatic, antiglaucoma",0.0384
CN(C)CC/C=C1\c2ccccc2Sc2ccc(Cl)cc21,maximum recommended daily dose (mmol/kg-bw/day),[2],0.0105
C#C[C@]1(O)CC[C@H]2[C@@H]3CCC4=Cc5oncc5C[C@]4(C)[C@H]3CC[C@@]21C,maximum recommended daily dose (mmol/kg-bw/day),TherapeuticCategory: antigonadotropin,0.0394
CCN(CC)C(=O)C1CN2CCc3cc(OC)c(OC)cc3C2CC1OC(C)=O (centres undefined),maximum recommended daily dose (mmol/kg-bw/day),"TherapeuticCategory: antipsychotic, antiemeic",0.00103
O=C(O)CCCC[C@@H]1SC[C@@H]2NC(=O)N[C@@H]21,maximum recommended daily dose (mmol/kg-bw/day),TherapeuticCategory: none,1.36e-05
CC(=O)O[C@H]1C[C@H](O[C@H]2[C@@H](O)C[C@H](O[C@H]3[C@@H](O)C[C@H](O[C@H]4CC[C@@]5(C)[C@H](CC[C@@H]6[C@@H]5C[C@@H](O)[C@]5(C)[C@@H](C7=CC(=O)OC7)CC[C@]65O)C4)O[C@@H]3C)O[C@@H]2C)O[C@H](C)[C@H]1O[C@@H]1O[C@H](CO)[C@@H](O)[C@H](O)[C@H]1O,maximum recommended daily dose (mmol/kg-bw/day),TherapeuticCategory: cardiotonic,3.38e-05
c1ccc(C2(N3CCCCC3)CCCCC2)cc1,maximum recommended daily dose (mmol/kg-bw/day),"TherapeuticCategory: analgesic, anesthetic",0.000822
O=C(Cn1c(=O)sc2ccc(Cl)cc21)N1CCN(CCO)CC1,maximum recommended daily dose (mmol/kg-bw/day),"TherapeuticCategory: antiasthmatic, anti inflammatry",0.0141
COc1ccccc1O,maximum recommended daily dose (mmol/kg-bw/day),TherapeuticCategory: expectorant,0.0902
CCn1ccc(NS(=O)(=O)c2ccc(N)cc2)nc1=O,maximum recommended daily dose (mmol/kg-bw/day),[1],0.0567
CC(CCc1ccccc1)NCC(O)c1ccc(O)c(C(N)=O)c1 (centres undefined),maximum recommended daily dose (mmol/kg-bw/day),TherapeuticCategory: antihypertensive,0.122
COCC(=O)Nc1c(I)c(C(=O)NCC(O)CO)c(I)c(C(=O)N(C)CC(O)CO)c1I (centres undefined),maximum recommended daily dose (mmol/kg-bw/day),TherapeuticCategory: diagnostic aid,0.126
CN1[C@@H]2CC[C@H]1CC(OC(=O)C(O)c1ccccc1)C2 (some centres undefined),maximum recommended daily dose (mmol/kg-bw/day),[6],0.0018
CCOC(=O)C1(c2ccccc2)CCN(CCc2ccc(N)cc2)CC1,maximum recommended daily dose (mmol/kg-bw/day),TherapeuticCategory: narcotic analgesic,0.00945
CN[C@@H]1[C@@H](O)[C@@H](O[C@@H]2[C@@H](O)[C@H](OC3OC(CN)=CCC3N)[C@@H](N)C[C@H]2N)OC[C@]1(C)O (some centres undefined),maximum recommended daily dose (mmol/kg-bw/day),[1],0.0067
N[C@@H](C(=O)N[C@@H]1C(=O)N2C(C(=O)O)=C(CSc3cn[nH]n3)CS[C@H]12)c1ccc(O)cc1,maximum recommended daily dose (mmol/kg-bw/day),[1],0.0361
C[N+](C)(C)CCCCCCCCCC[N+](C)(C)C,maximum recommended daily dose (mmol/kg-bw/day),TherapeuticCategory: skeletal muscle relaxant,9.97e-05
CN1CCC[C@@H]1CCO[C@](C)(c1ccccc1)c1ccc(Cl)cc1,maximum recommended daily dose (mmol/kg-bw/day),[5],0.00039
CCOC(=O)C1=C(COCCN)NC(C)=C(C(=O)OC)C1c1ccccc1Cl (centres undefined),maximum recommended daily dose (mmol/kg-bw/day),"TherapeuticCategory: antianginal, antihypertensive",0.000408
CC(C)=CCOc1ccc(/C=C/C(=O)c2ccc(OCC=C(C)C)cc2OCC(=O)O)cc1,maximum recommended daily dose (mmol/kg-bw/day),[3],0.0111
CO/N=C(/C(=O)N[C@@H]1C(=O)N2C(C(=O)OC(C)OC(=O)C(C)(C)OC)=C(COC(N)=O)CS[C@H]12)c1ccco1 (some centres undefined),maximum recommended daily dose (mmol/kg-bw/day),[1],0.0294
CCOC(=O)c1cncn1C(C)c1ccccc1 (centres undefined),maximum recommended daily dose (mmol/kg-bw/day),[6],0.00246
CN[C@@H]1CCc2[nH]c3ccc(C(N)=O)cc3c2C1,maximum recommended daily dose (mmol/kg-bw/day),[7],0.000514
N[C@@H]1CONC1=O,maximum recommended daily dose (mmol/kg-bw/day),[1],0.164
CCN(CC)Cc1cc(Nc2ccnc3cc(Cl)ccc23)ccc1O,maximum recommended daily dose (mmol/kg-bw/day),TherapeuticCategory: antimalarial,0.00936
CC[C@@H](CO)NCCN[C@@H](CC)CO,maximum recommended daily dose (mmol/kg-bw/day),[1],0.122
CC[C@]1(O)C[C@H]2CN(CCc3c([nH]c4ccccc34)[C@@](C(=O)OC)(c3cc4c(cc3OC)N(C)[C@H]3[C@@](O)(C(N)=O)[C@H](O)[C@]5(CC)C=CCN6CC[C@]43[C@@H]65)C2)C1,maximum recommended daily dose (mmol/kg-bw/day),[8],0.000143
C[C@](O)(CS(=O)(=O)c1ccc(F)cc1)C(=O)Nc1ccc(C#N)c(C(F)(F)F)c1,maximum recommended daily dose (mmol/kg-bw/day),"TherapeuticCategory: antiandrogen, antineoplastic",0.00194
OC(CCN1CCCC1)(c1ccccc1)C1CCCCC1 (centres undefined),maximum recommended daily dose (mmol/kg-bw/day),[6],0.00116
C[C@H]1C[C@H]2[C@@H]3CCC4=CC(=O)C=C[C@]4(C)[C@@]3(F)[C@@H](O)C[C@]2(C)[C@@]1(OC(=O)c1ccccc1)C(=O)CO,maximum recommended daily dose (mmol/kg-bw/day),TherapeuticCategory: glucocorticoid,0.000302
CC(=O)Oc1ccccc1C(=O)O,maximum recommended daily dose (mmol/kg-bw/day),"TherapeuticCategory: analgesic, antipyretic, anti inflammatory",0.37
CN1CCC2=C(C1)C(c1ccccc1)c1ccccc12 (centres undefined),maximum recommended daily dose (mmol/kg-bw/day),[5],0.00957
COc1cc([C@@H]2c3cc4c(cc3C(O[C@@H]3O[C@@H]5CO[C@@H](C)O[C@H]5[C@H](O)[C@H]3O)C3COC(=O)[C@@H]32)OCO4)cc(OC)c1O (some centres undefined),maximum recommended daily dose (mmol/kg-bw/day),[8],0.00459
Cc1nnc2n1-c1sc(Br)cc1C(c1ccccc1Cl)=NC2,maximum recommended daily dose (mmol/kg-bw/day),[9],1.06e-05
N[C@@H](Cc1c[nH]c2ccccc12)C(=O)O,maximum recommended daily dose (mmol/kg-bw/day),"TherapeuticCategory: antidepressant, nutrient",0.49
Clc1ccc2c(c1)C(c1ccccc1)=NCc1nncn1-2,maximum recommended daily dose (mmol/kg-bw/day),[9],0.000113
CCc1cc2c(s1)-n1c(C)nnc1CN=C2c1ccccc1Cl,maximum recommended daily dose (mmol/kg-bw/day),TherapeuticCategory: anxiolytic,0.000195
CN(C)CCc1c[nH]c2ccc(Cn3cncn3)cc12,maximum recommended daily dose (mmol/kg-bw/day),[7],0.00186
CN[C@@H](C)[C@@H](O)c1ccccc1,maximum recommended daily dose (mmol/kg-bw/day),"TherapeuticCategory: l-form as bronchodilator, d-form as decongestant",0.0242
COc1cccc2c1C(=O)c1c(O)c3c(c(O)c1C2=O)C[C@@](O)(/C(C)=N/NC(=O)c1ccccc1)C[C@@H]3O[C@H]1C[C@H](N)[C@H](O)[C@H](C)O1,maximum recommended daily dose (mmol/kg-bw/day),[8],0.0103
CC(C)(CO)C(O)C(=O)NCCCO (centres undefined),maximum recommended daily dose (mmol/kg-bw/day),TherapeuticCategory: cholinergic,0.0406
O=P1(N(CCCl)CCCl)NCCCO1 (centres undefined),maximum recommended daily dose (mmol/kg-bw/day),[8],0.0192
